Results: patent US20110110924A1, “Resistin as a Marker and Therapeutic Target for Cardiovascular Disease” (priority 2004, published 2011)
Peptide text beside a SMILES is read from it. * marks the point of attachment. Cbz = O=C(OCc1ccccc1)*

What was measured:
[1] = system: resistin mRNA in primary human macrophages; experiment: Resistin mRNA expression in primary human macrophages (real time PCR); type: cell-based; conditions: for effect on induction of resistin by LPS: pretreated 2 h, then LPS (1 ng/ml) 24 h
Procedure: (§1) Peripheral blood mononuclear cells were isolated from whole blood of healthy donors following apheresis and elutriation. […] Cells were plated in 24 well plates at a density of 10^6 cells per well, allowed to adhere for 4 hours, then washed with Dulbecco's Modified Eagles Medium (DMEM) and further cultured in 10% FBS in DMEM supplemented with 5 ng/ml GM-CSF (Sigma) to promote macrophage differentiation. All experiments were performed after overnight equilibration with macrophage serum free medium (Gibco/Invitrogen) supplemented with 5 ng/ml GM-CSF. […] Adenovirus expressing activated IKK in pAD-easy™ vector with GFP and control vector were a generous gift from Steven Shoelson.
RNA was isolated using RNeasy® Mini Kit (Qiagen), then subjected to DNAse digestion followed by reverse transcription (Invitrogen). mRNA transcripts were quantified by the dual-labeled fluorogenic probe method for real time PCR, using a Prism® 7900 thermal cycler and sequence detector (Perkin Elmer/ABI). Real time PCR was performed by using Taqman® Universal Polymerase Master Mix (Applied Biosystems). The primers and probes used in the real-time PCR were the following: […]
The cycle number at which the transcripts of the gene of interest was detectable (CT) was normalized to the cycle number of 36B4 detection, referred to as δ CT. The fold change of the gene of interest expression relative to the vehicle treated group was expressed as 2^− δδ^CT, in which δδ CT equals the δCT of the compound treated group minus δCT of the chosen control group, which was normalized to 1.

[2] = system: plasma resistin; experiment: Human endotoxemia study, plasma resistin (ELISA); type: in vivo; conditions: for increase of plasma resistin levels: healthy volunteers
Procedure: In another experiment, short term variation in plasma levels was examined by repeated sampling in young healthy control subjects of an additional clinical research study (Reilly et al, 2004c, and Lehrke, 2004, both cited above). Baseline variability in plasma resistin was assessed over a 24 hour period, in healthy young volunteers (n=6; three male and three females; age 24-34; BMI 24.3±1.07) without any past medical history and on no medications. These subjects were recruited to a 60-hour inpatient, General Clinical Research Center (GCRC) protocol designed to assess the metabolic responses to an inflammatory stimulus. Plasma resistin levels were determined in serial blood samples, collected at eight time points over 24 hours prior to the intravenous administration of human-research-grade endotoxin (3 ng/kg) as described in more detail in Reilly et al, 2004c, cited above.
Resistin concentrations, in cell media and human plasma, were assessed with a commercially available ELISA (Linco) and normalized to cell protein. Average correlation coefficient for standards using 4 parameter fit was 0.99. Intra-assay and inter-assay coefficients of variance were 4.7% and 9.1%, respectively. Direct comparison of standard curves generated by the Linco kit with another commercially available resistin ELISA (Biovendor) yielded high correlation (rho=0.99, p<0.001), except that the Biovendor results were approximately 30% lower than those determined with the Linco assay. This appeared to be related to the standards used for calibration. Discrepant absolute values among different assays, including the Biovendor assay, were recently described (Pfutzner 2003 cited above). Resistin levels in 40 plasma samples were measured using both Linco and Biovendor ELISA kits, with moderate correlation (rho=0.66). Levels of soluble TNFα Receptor-2 were measured using a commercially available immunoassay (R&D Systems). Intra-assay and inter assay coefficients of variance were 5.1% and 9.8%, respectively.
Healthy volunteers (n=6, 3 male, 3 female) aged 18-45 with BMI between 20 and 30 and on no medications were studied. The University of Pennsylvania Institutional Review Board approved the study protocol and all subjects gave written informed consent. Following screening and exclusion of subjects with any clinical or laboratory abnormalities, subjects were admitted to the General Clinical Research Center at the University of Pennsylvania for a 60 hour stay. Serial blood samples were collected for 24 hours prior to and 24 hours following the intravenous administration of human research grade endotoxin [obtained from NIH Clinical Center, reference endotoxin (CCRE) (lots 1 and 2; NIHCC PDS #67801)] at a dose of 3 ng/kg given at 6 AM. Plasma and whole blood RNA (PAX tube isolators, Qiagen) samples were isolated from blood, and stored under appropriate conditions for subsequent assays.

[3] = system: TNFα mRNA in primary human macrophages; experiment: TNFα mRNA expression in primary human macrophages (real time PCR); type: cell-based; conditions: LPS 1 μg/ml
Procedure: (§2) Peripheral blood mononuclear cells were isolated from whole blood of healthy donors following apheresis and elutriation. Greater than 90% of these monocytes expressed CD14 and HLA-DR. Cells were plated in 24 well plates at a density of 10^6 cells per well, allowed to adhere for 4 hours, then washed with Dulbecco's Modified Eagles Medium (DMEM) and further cultured in 10% FBS in DMEM supplemented with 5 ng/ml GM-CSF (Sigma) to promote macrophage differentiation. All experiments were performed after overnight equilibration with macrophage serum free medium (Gibco/Invitrogen) supplemented with 5 ng/ml GM-CSF. Cells were treated as indicated with LPS (Sigma), aspirin (Sigma), SN50 and control peptide (Biomol), MG132, PD98059, SB20358 (Calbiochem), and TNFα (R&D Systems). […]
RNA was isolated using RNeasy® Mini Kit (Qiagen), then subjected to DNAse digestion followed by reverse transcription (Invitrogen). mRNA transcripts were quantified by the dual-labeled fluorogenic probe method for real time PCR, using a Prism® 7900 thermal cycler and sequence detector (Perkin Elmer/ABI). […]
Primer and probe for TNFα was obtained from ABI. […] The fold change of the gene of interest expression relative to the vehicle treated group was expressed as 2^− δδ^CT, in which δδ CT equals the δCT of the compound treated group minus δCT of the chosen control group, which was normalized to 1.

[4] = system: sTNFR2 secretion by human macrophages; experiment: sTNFR2 secretion into medium by primary human macrophages; type: cell-based; conditions: LPS 1 μg/ml, time course
Procedure: as §2, with “GM-CSF.” for “GM-CSF. Cells were treated as indicated with LPS (Sigma), aspirin (Sigma), SN50 and control peptide (Biomol), MG132, PD98059, SB20358 (Calbiochem), and TNFα (R&D Systems).”
Resistin concentrations, in cell media and human plasma, were assessed with a commercially available ELISA (Linco) and normalized to cell protein. […] Direct comparison of standard curves generated by the Linco kit with another commercially available resistin ELISA (Biovendor) yielded high correlation (rho=0.99, p<0.001), except that the Biovendor results were approximately 30% lower than those determined with the Linco assay. […] Resistin levels in 40 plasma samples were measured using both Linco and Biovendor ELISA kits, with moderate correlation (rho=0.66). Levels of soluble TNFα Receptor-2 were measured using a commercially available immunoassay (R&D Systems). […]

[5] = system: mouse resistin in mouse peritoneal macrophages; experiment: Resistin expression in activated mouse peritoneal macrophages; type: cell-based; conditions: macrophages harvested after thioglycolate treatment; data not shown
[6] = system: resistin protein secretion by human macrophages; experiment: Resistin protein secretion by primary human macrophages (ELISA); type: cell-based
Procedure: as §1
Resistin concentrations, in cell media and human plasma, were assessed with a commercially available ELISA (Linco) and normalized to cell protein.

[7] = system: TNFα secretion by human macrophages; experiment: TNFα secretion into medium by primary human macrophages; type: cell-based; conditions: LPS 1 μg/ml, time course
Procedure: Peripheral blood mononuclear cells were isolated from whole blood of healthy donors following apheresis and elutriation. Greater than 90% of these monocytes expressed CD14 and HLA-DR. Cells were plated in 24 well plates at a density of 10^6 cells per well, allowed to adhere for 4 hours, then washed with Dulbecco's Modified Eagles Medium (DMEM) and further cultured in 10% FBS in DMEM supplemented with 5 ng/ml GM-CSF (Sigma) to promote macrophage differentiation. All experiments were performed after overnight equilibration with macrophage serum free medium (Gibco/Invitrogen) supplemented with 5 ng/ml GM-CSF. Cells were treated as indicated with LPS (Sigma), aspirin (Sigma), SN50 and control peptide (Biomol), MG132, PD98059, SB20358 (Calbiochem), and TNFα (R&D Systems). Neutralizing antibodies to TNFα, IL-6, and anti-IL-6α, as well as control IgG were obtained from R&D Systems. Adenovirus expressing activated IKK in pAD-easy™ vector with GFP and control vector were a generous gift from Steven Shoelson.

[8] = LPS 24 h treatment, increasing concentration
[9] = human macrophages in cell culture

Compound: CC(=O)Oc1ccccc1C(=O)O [aspirin]
- effect on endotoxin-induced resistin expression ([1]; pre-treated with aspirin 2 h, then LPS (1 μg/ml) and aspirin 24 h, dose-dependent): dramatically decreased

Compound: C[S+]([O-])c1ccc(-c2nc(-c3ccc(F)cc3)c(-c3ccncc3)[nH]2)cc1 (stereo not drawn) [SB20358]
- effect on induction of resistin by LPS ([1]; 2.5 μM): partially blocked

Compound: CC(C)C[C@@H](C=O)NC(=O)[C@H](CC(C)C)NC(=O)[C@H](CC(C)C)NC(=O)OCc1ccccc1 [MG132] (Cbz-Leu-Leu-Leu-aldehyde)
- effect on endotoxin-induced activation of resistin expression ([1]; MG132 treatment of macrophages, data not shown): abrogated

Compound: COc1cccc(-c2cc(=O)c3ccccc3o2)c1N [PD98059]
- effect on induction of resistin by LPS ([1]; 50 μM): partially blocked

Compound: IL-6: cytokine interleukin-6
- effect on resistin ([1]; data not shown and Kaser et al, 2003): induces resistin modestly

Compound: lipopolysaccharide [LPS]
- increase of resistin serum/plasma levels ([2]; LPS in humans (FIG. 6A)): over 400%
- putative maximum increase in resistin due to inflammation ([2]; endotoxin induction, Examples 6-12): 18 to 19 ng/mL
- increase of plasma resistin levels ([2]; intravenous LPS 3 ng/kg, listed as endotoxemia): > 7 fold
- increase of plasma resistin levels ([2]; intravenous LPS 3 ng/kg, listed as endotoxin): 3-5 fold
- time of peak resistin levels after LPS administration ([2]; intravenous LPS 3 ng/kg, six normal volunteers): 8 to 16 h
- time of peak resistin gene expression after LPS ([1]; LPS 1 μg/ml): 24 h
- effect on resistin gene expression [1, 8]: dramatic, dose-responsive increase
- time of induction of resistin mRNA after LPS exposure [1, 9]: 6 to 24 h
- time at which TNFα gene expression was detectable after LPS [3]: 2 h
- time of peak TNFα gene expression after LPS exposure [3]: 6 h
- maximal secreted protein level: sTNFR2 [4]: 39.3 ng/mL/mg
- mouse resistin expression after LPS [5]: did not express detectable levels
- maximal secreted protein level: resistin ([6]; LPS 1 μg/ml, time course, normalized to cell protein): 21.9 ng/mL/mg
- effect on resistin protein secretion into the medium [6, 8]: increase in resistin protein secretion
- time of induction of resistin protein after LPS exposure [6, 9]: 6 to 24 h
- maximal secreted protein level: TNFα [7]: 207.2 ng/mL/mg
